Test results: patent publication US20260199363A1, “METHOD OF TREATING CANCER IN A PATIENT WITH HEPATIC DYSFUNCTION” (priority 2023, published 2026)
Read-outs that look alike come from different tables or passages of the source.

Columns and labels:
glioma = assay: Study AG881-C-004 (INDIGO): clinical response per BIRC and exposure-efficacy analysis; format: in vivo, human
Source text: Exposure-efficacy analyses included clinical response to treatment, i.e., PFS, TTNI, OR (CR+PR+mR), CR+PR, all defined per blind independent review committee (BIRC). […] The exposure metrics were pop PK model predicted individual exposures by using post-hoc individual PK parameters and were based on the actual average dose across the treatment duration. The dose of vorasidenib used in the simulations is corrected for dose-reductions and interruptions occurring during the treatment in real life. […] The exposure-efficacy analysis used the area under the curve (AUCeot) at steady state based on the actual average dose across the treatment duration until EOT. […] For the 14 subjects with dose reductions due to hepatotoxicity AE, a swimming plot showing time on study by individual subject is provided in the Figure. The plot includes details regarding timing and duration of TEAEs leading to dose reduction, timing and duration of reduced dose, as well as disease response by Blinded Independent Central Review (BIRC) at each assessment timepoint.

[1] = in vivo
[2] = Vorasidenib plasma pharmacokinetics across doses (steady-state exposure, dose proportionality); format: in vivo, human
Method: At the therapeutic dose of 40 mg QD (Formulation 2), the PopPK model predicted geometric mean AUC,ss and Cmax,ss were 3 times lower than corresponding exposure metrics at 300 mg QD (Formulation 1).

[3] = Study PKH-95032-008: Phase 1, open-label, single-dose pharmacokinetics, safety and tolerability in moderate hepatic impairment vs matched normal hepatic function; format: in vivo, human; settings: for Tmax: median (minimum, maximum); for Cmax, u: unbound; for half-life / fraction unbound: arithmetic mean±StD; for fraction unbound: read-out: Fu, ave; for AUC0-t, Ratio (%) of Geometric Means (Test/Reference) / Cmax, Ratio (%) of Geometric Means (Test/Reference): moderate hepatic impairment (Test) / normal hepatic function
[4] = Study AG881-C-004 (INDIGO): hepatic enzyme elevation adverse events and dose modifications; format: in vivo, human; settings: for TEAEs leading to death, number of subjects / Treatment-related TEAEs leading to death, number of subjects: 40 mg QD, hepatic enzymes elevation SMQ
Source text: For Study AG881-C-004, the inclusion criteria specified that subjects with adequate hepatic (serum total bilirubin ≤1.5× upper limit of normal (ULN); and aspartate aminotransferase [AST] or alanine aminotransferase [ALT] at or below ULN; and AP≤2.5×ULN) were eligible for enrollment.
In the INDIGO clinical trial (Study AG881-C-004), 18.6% (31/167) of patients treated with Vorasidenib experienced ALT elevations ≥3 times the ULN and 8.4% (14/167) experienced AST elevations >3 times the ULN. Among these patients, 1.2% (2/167) had concurrent ALT or AST elevations >3 times the ULN and total bilirubin ≥2 times the ULN.
Similarly, more subjects in the vorasidenib arm experienced treatment-related TEAEs than the placebo arm (65 [38.9%] vs. 26 [16.0%] subjects, respectively).
Table 4. Overall Summary of Treatment-Emergent Adverse Events from SMQ (Broad Search) of Hepatic Enzymes Elevation Liver-Related Investigations, Signs and Symptoms—Glioma with Vorasidenib 40 mg QD
Most of the TEAEs were managed within the clinical trial protocol, and discontinuations due to elevated liver enzyme effects were rare (5 subjects, 3%). The median time to resolution (TTR) for the most common (occurred in ≥2 subjects) Grade ≥3 TEAEs in subjects in the vorasidenib arm are as follows:
The exposure-efficacy analysis used the area under the curve (AUCeot) at steady state based on the actual average dose across the treatment duration until EOT.
For the 14 subjects with dose reductions due to hepatotoxicity AE, a swimming plot showing time on study by individual subject is provided in the Figure. The plot includes details regarding timing and duration of TEAEs leading to dose reduction, timing and duration of reduced dose, as well as disease response by Blinded Independent Central Review (BIRC) at each assessment timepoint.

[5] = 4 subjects further reduced from 20 mg QD to 10 mg QD
[6] = 10 subjects reduced from 40 mg QD to 20 mg QD only
[7] = 167 subjects with glioma, only PR
[8] = 167 subjects with glioma, only PR and MR
[9] = Group A normal hepatic function, 20 mg single dose
[10] = Group B moderate hepatic impairment, 20 mg single dose
[11] = human, plasma, 20 mg, Group A normal hepatic function, 20 mg single dose
[12] = human, plasma, 20 mg, Group B moderate hepatic impairment, 20 mg single dose

For C[C@@H](Nc1nc(N[C@H](C)C(F)(F)F)nc(-c2cccc(Cl)n2)n1)C(F)(F)F [vorasidenib, 6-(6-chloropyridin-2-yl)-N^2,N^4-bis((R)-1,1,1-trifluoropropan-2-yl)-1,3,5-triazine-2,4-diamine], the “subjects with best response of SD while receiving 10 mg QD” value (glioma; [5]) was “Three”, the “subjects with response of PD while receiving 10 mg QD” value (glioma; [5]) was 1 subject and the “subjects with best response of MR by BIRC while receiving 20 mg QD” value (glioma; [6]) was 1 subject. The “subjects with best response of PD by BIRC while receiving 20 mg QD” value (glioma; [6]) was “one”, the “subjects with best response of SD by BIRC while receiving 20 mg QD” value (glioma; [6]) was 8 subjects and the “subjects with intervention (TTNI), %” value (glioma; 167 subjects with glioma) was 11.4%. For the same compound, the “subjects with intervention (TTNI), number” value (glioma; 167 subjects with glioma) was 19 subjects, the “subjects with progression (PFS) per BIRC, %” value (glioma; 167 subjects with glioma) was 28.1% and the “subjects with progression (PFS) per BIRC, number” value (glioma; 167 subjects with glioma) was 47 subjects. The “subjects with CR+PR per BIRC, %” value (glioma; [7]) was 1.2%, the “subjects with CR+PR per BIRC, number” value (glioma; [7]) was 2 subjects and the “subjects with OR (CR+PR+mR) per BIRC, %” value (glioma; [8]) was 10.8%. For the same compound, the “subjects with OR (CR+PR+mR) per BIRC, number” value (glioma; [8]) was 18 subjects, the “effect of exposure on efficacy responses (PFS, TTNI, OR and CR+PR)” value (glioma; studied exposure range, Study AG881-C-004) was “did not affect efficacy responses” and the “Fecal excretion, total radioactivity recovery in feces” value [1] was 84.7%. The “dose proportionality of PK” value ([2]; from 10 to 200 mg) was “dose proportional”, the “time dependence of PK” value ([2]; in vivo) was “not time-dependent” and the “AUC0-t and Cmax, normal hepatic function vs moderate hepatic impairment” value ([3]; 20 mg single dose) was “similar”. For the same compound, the “unbound AUC0-t higher in moderate hepatic impairment compared to normal hepatic function” value ([3]; 20 mg single dose) was 23%, the “unbound plasma protein fraction, both groups compared” value ([3]; 20 mg single dose) was “similar” and the Tmax [3, 9] was 3.000 (0.500, 4.00) (10) h. For the same compound, the “Cmax, u” value [3, 9] was 0.8135 (41.7) (10) ng/mL, the Tmax [3, 10] was 2.000 (1.00, 3.00) (9) h and the “Cmax, u” value [3, 10] was 1.104 (54.2) (9) ng/mL. It also gave a half-life [3, 11] of 443 ± 349 h, a fraction unbound [3, 11] of 0.0223 ± 0.00245 and an AUC(0-t) ([3]; human, plasma, 20 mg, Group A normal hepatic function, 20 mg single dose, geometric mean (geometric CV %), read-out: AUC0-t) of 1440 ng·h/mL. It also gave a Cmax ([3]; human, plasma, 20 mg, Group A normal hepatic function, 20 mg single dose, geometric mean (geometric CV %), read-out: Cmax) of 36.5 ng/mL, a Tmax ([3]; human, plasma, 20 mg, Group A normal hepatic function, 20 mg single dose, read-out: Tmax) of ~3 h and an AUC(0-t) ([3]; human, plasma, 20 mg, Group A normal hepatic function, total plasma, 20 mg, read-out: AUC0-t, Geometric Mean (linear mixed effects model)) of 1390 ng·h/mL. It also gave a Cmax ([3]; human, plasma, 20 mg, Group A normal hepatic function, total plasma, 20 mg, read-out: Cmax, Geometric Mean (linear mixed effects model)) of 38.2 ng/mL, a half-life [3, 12] of 360 ± 189 h and a fraction unbound [3, 12] of 0.0289 ± 0.00354. The AUC(0-t) ([3]; human, plasma, 20 mg, Group B moderate hepatic impairment, 20 mg single dose, geometric mean (geometric CV %), read-out: AUC0-t) was 1680 ng·h/mL, the Cmax ([3]; human, plasma, 20 mg, Group B moderate hepatic impairment, 20 mg single dose, geometric mean (geometric CV %), read-out: Cmax) was 38.5 ng/mL and the Tmax ([3]; human, plasma, 20 mg, Group B moderate hepatic impairment, 20 mg single dose, read-out: Tmax) was ~2 h. For the same compound, the AUC(0-t) ([3]; human, plasma, 20 mg, Group B moderate hepatic impairment, total plasma, 20 mg, read-out: AUC0-t, Geometric Mean (linear mixed effects model)) was 1750 ng·h/mL, the Cmax ([3]; human, plasma, 20 mg, Group B moderate hepatic impairment, total plasma, 20 mg, read-out: Cmax, Geometric Mean (linear mixed effects model)) was 38.5 ng/mL and the “tolerability of single-dose administration” value ([3]; in vivo) was “tolerable”. For the same compound, the “AUC0-t, Ratio (%) of Geometric Means (Test/Reference)” value ([3]; 20 mg) was 126%, the “Cmax, Ratio (%) of Geometric Means (Test/Reference)” value ([3]; 20 mg) was 101% and the “AUC0-t, Ratio (%) of Geometric Means (Test/Reference)” value ([3]; 20 mg, listed as Vorasidenib) was 125.97%. For the same compound, the “Cmax, Ratio (%) of Geometric Means (Test/Reference)” value ([3]; 20 mg, listed as Vorasidenib) was 100.66%, the “effect of moderate hepatic impairment (Child-Pugh) on total or free (unbound) exposure” value ([3]; single oral dose of 20 mg) was “did not lead to clinically relevant changes” and the “TEAEs leading to death, number of subjects” value ([4]; post-crossover, N = 52) was 0 subjects. The “Treatment-related TEAEs leading to death, number of subjects” value ([4]; post-crossover, N = 52) was 0 subjects, the “TEAEs leading to death, number of subjects” value ([4]; without crossover, N = 167) was 0 subjects and the “Treatment-related TEAEs leading to death, number of subjects” value ([4]; without crossover, N = 167) was 0 subjects. For the same compound, the “TEAEs (overall) leading to dose reduction, % of subjects” value ([4]; human, in vivo) was 10.8%, the “TEAEs (overall) leading to dose reduction, number of subjects” value ([4]; human, in vivo) was 18 subjects and the “alanine aminotransferase increased leading to dose reduction, % of subjects” value ([4]; human, in vivo) was 7.8%. The “alanine aminotransferase increased leading to dose reduction, number of subjects” value ([4]; human, in vivo) was 13 subjects, the “alanine aminotransferase increased: % with TTR in >60 days” value ([4]; human, in vivo) was 41.9% and the “alanine aminotransferase increased: % with TTR in ≤15 days” value ([4]; human, in vivo) was 9.3%. The “alanine aminotransferase increased: number of subjects with TTR in >60 days” value ([4]; human, in vivo) was 36 subjects, the “alanine aminotransferase increased: number of subjects with TTR in ≤15 days” value ([4]; human, in vivo) was 8 subjects and the “aspartate aminotransferase increased: % with TTR in >60 days” value ([4]; human, in vivo) was 21.4%. For the same compound, the “aspartate aminotransferase increased: % with TTR in ≤15 days” value ([4]; human, in vivo) was 28.6%, the “aspartate aminotransferase increased: number of subjects with TTR in >60 days” value ([4]; human, in vivo) was 15 subjects and the “aspartate aminotransferase increased: number of subjects with TTR in ≤15 days” value ([4]; human, in vivo) was 20 subjects. For the same compound, the “effect of exposure (AUCavg and Cmax,avg) on ALT, AST, and bilirubin (all grade and Grade ≥2)” value ([4]; human, in vivo) was “no statistically significant effect”, the “median TTR for aspartate aminotransferase increased (any grade)” value ([4]; human, in vivo) was 29.0 days and the “median time to resolution (TTR) for alanine aminotransferase increased (any grade)” value ([4]; human, in vivo) was 56.0 days. For the same compound, the “patients with ALT elevations ≥3 times the ULN” value ([4]; human, in vivo) was 18.6%, the “patients with ALT elevations ≥3 times the ULN (number/total)” value ([4]; human, in vivo) was 31/167 and the “patients with AST elevations >3 times the ULN” value ([4]; human, in vivo) was 8.4%. For the same compound, the “patients with AST elevations >3 times the ULN (number/total)” value ([4]; human, in vivo) was 14/167, the “patients with concurrent ALT or AST elevations >3 times the ULN and total bilirubin ≥2 times the ULN” value ([4]; human, in vivo) was 1.2% and the “patients with concurrent ALT or AST elevations >3 times the ULN and total bilirubin ≥2 times the ULN (number/total)” value ([4]; human, in vivo) was 2/167. For the same compound, the “subjects requiring a dose reduction from 40 mg QD to 20 mg QD only” value ([4]; human, in vivo) was 10 subjects, the “subjects requiring a second dose reduction from 20 mg QD to 10 mg QD” value ([4]; human, in vivo) was 4 subjects and the “subjects with at least 1 dose reduction based on the exposure data (any reason), %” value ([4]; human, in vivo) was 16.2%. The “subjects with at least 1 dose reduction based on the exposure data (any reason), number” value ([4]; human, in vivo) was 27 subjects and the “course of liver enzyme and bilirubin increases” value ([4]; in vivo) was “transient and improved or resolved”.
